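GI50 = concentration required for 50% inhibition of growth. TGI marks complete inhibition of growth.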
How the values were obtained:
Assay in all cases: NCI anticancer screen, dose series, 384-well format
A549 NSCLC = tested on: A549 NSCLC
ACHN renal = tested on: ACHN renal
HCT-15 colon = tested on: HCT-15 colon
HL-60(TB) leukemia = tested on: HL-60(TB) leukemia
HOP-62 NSCLC = tested on: HOP-62 NSCLC
NCI-H23 lung = tested on: NCI-H23 lung
NCI-H460 NSCLC = tested on: NCI-H460 NSCLC
OVCAR-3 ovarian = tested on: OVCAR-3 ovarian
OVCAR-8 ovarian = tested on: OVCAR-8 ovarian
SK-MEL-2 melanoma = tested on: SK-MEL-2 melanoma
SK-MEL-5 melanoma = tested on: SK-MEL-5 melanoma
SK-OV-3 ovarian = tested on: SK-OV-3 ovarian
UACC-62 melanoma = tested on: UACC-62 melanoma

| Compound | GI50 (A549 NSCLC) [µM] | TGI (A549 NSCLC) [µM] | GI50 (ACHN renal) [µM] | TGI (ACHN renal) [µM] | GI50 (HCT-15 colon) [µM] | TGI (HCT-15 colon) [µM] | GI50 (HL-60(TB) leukemia) [µM] | TGI (HL-60(TB) leukemia) [µM] | GI50 (HOP-62 NSCLC) [µM] | TGI (HOP-62 NSCLC) [µM] | GI50 (NCI-H23 lung) [µM] | TGI (NCI-H23 lung) [µM] | GI50 (NCI-H460 NSCLC) [µM] | TGI (NCI-H460 NSCLC) [µM] | GI50 (OVCAR-3 ovarian) [µM] | TGI (OVCAR-3 ovarian) [µM] | GI50 (OVCAR-8 ovarian) [µM] | TGI (OVCAR-8 ovarian) [µM] | GI50 (SK-MEL-2 melanoma) [µM] | TGI (SK-MEL-2 melanoma) [µM] | also measured |
| --- | --- | --- | --- | --- | --- | --- | --- | --- | --- | --- | --- | --- | --- | --- | --- | --- | --- | --- | --- | --- | --- |
| Cc1cc(-c2nnc(N)nc2-c2ccc(F)cc2)cc(Cl)n1 | > 100 | > 100 | > 100 | > 100 | > 100 | > 100 | 36.5 | > 100 | > 82.1 | > 100 | 32.5 | > 100 | > 89.7 | > 100 | > 81.9 | > 100 | > 92.6 | > 100 | > 100 | > 100 | GI50 (SK-MEL-5 melanoma): 88 µM; TGI (SK-MEL-5 melanoma): > 100 µM; GI50 (SK-OV-3 ovarian): > 100 µM; TGI (SK-OV-3 ovarian): > 100 µM; GI50 (UACC-62 melanoma): 75.7 µM; TGI (UACC-62 melanoma): > 100 µM |
| Cc1ccc(-c2nc(N)nc3c2nnn3Cc2cccc(CO[C@H]3CCOC3)n2)o1 | > 100 | > 100 | > 100 | > 100 | > 100 | > 100 | > 64.3 | > 100 | > 100 | > 100 | > 100 | > 100 | > 100 | > 100 | > 100 | > 100 | > 100 | > 100 | > 100 | > 100 | GI50 (SK-MEL-5 melanoma): > 53.9 µM; TGI (SK-MEL-5 melanoma): > 100 µM; GI50 (SK-OV-3 ovarian): > 100 µM; TGI (SK-OV-3 ovarian): > 100 µM; GI50 (UACC-62 melanoma): > 100 µM; TGI (UACC-62 melanoma): > 100 µM |
